The target in test [1] is Leukotriene B4 receptor 1 (Homo sapiens) (UniProt Q15722). Kind of test: The compound was tested for inhibition of [3H]LTB4 binding to Leukotriene B4 (LTB4) receptor on the human neutrophils (PMN) at concentration of 100 nM.
Test [2] shares this target. In words: The compound was tested for inhibition of [3H]-LTB4 binding to Leukotriene B4 (LTB4) receptor on the human neutrophils (PMN) at concentration of 10 nM.
Test [3] has the same target. In words: The compound was tested for inhibition of [3H]LTB4 binding to Leukotriene B4 (LTB4) receptor on the human neutrophils (PMN) at concentration of 1 uM.

In general, inhibition refers to the change of the read-out against control, counted positive when it falls. A high value points to strong suppression.

Sequence of Leukotriene B4 receptor 1 (Homo sapiens) (Q15722 whole entry): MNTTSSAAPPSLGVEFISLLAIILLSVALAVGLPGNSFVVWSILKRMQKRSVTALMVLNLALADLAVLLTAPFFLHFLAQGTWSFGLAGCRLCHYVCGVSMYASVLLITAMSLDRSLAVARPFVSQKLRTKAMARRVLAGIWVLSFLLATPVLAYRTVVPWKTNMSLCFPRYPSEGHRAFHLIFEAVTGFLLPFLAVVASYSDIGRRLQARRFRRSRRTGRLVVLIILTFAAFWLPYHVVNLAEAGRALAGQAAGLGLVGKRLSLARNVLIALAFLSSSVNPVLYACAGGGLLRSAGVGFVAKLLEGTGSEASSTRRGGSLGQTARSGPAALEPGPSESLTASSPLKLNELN

In the case of `COc1cc(C(=O)N(C(C)C)C(C)C)ccc1OCCCCOc1ccc2c(N)noc2c1`, the inhibition worked out at 95% in test [1], 64% in test [2] and 99% in test [3].

In the case of `COc1cc(C(=O)N(C(C)C)C(C)C)ccc1OCCCOc1ccc2c(N)noc2c1`, the inhibition in test [1] is 37%; in test [2], less than 10%; in test [3], 92%.

Consider `COc1cc(C(=O)N(C(C)C)C(C)C)ccc1OCCCCCOc1ccc2c(N)noc2c1`, for which the results for the inhibition in test [1], in test [2] and in test [3] were 10%, less than 10% and 90%, respectively.
